# Assays:
# malignant gliomas = conditions: cited from earlier work
# [1] = daily (1 mg/day) IV injection, nude mice carrying human tumor xenografts; cited from earlier work
# LN229 tumors [2] = experiment: Metabolite analysis (Metabolon) of LN229 tumor samples; assay type: in vivo, mouse; conditions: EM+M4N+TMZ1/2 versus EM+TMZ1/2 schedule
# Kras G12D mice = conditions: mouse, in vivo, po
# Source text: FIG. 13 depicts MRI of lung tumors in mice. The axial images were taken by 9.4 T MRI; RARE T2-weighted; slice thickness=1 mm; total slice number=24. The scan started from neck to bottom of ribs. The tumor size ≥1 mm is detectable by this scan. H, heart; S, spine; Arrow: lung tumor;
# In the present Kras-driven lung cancer model, since mice carry homozygous mutant Kras are embryonic lethal, all Kras mice bred are heterozygous Kras^+/G12D that one genetic engineering allele can synthesize the Kras G12D protein by “hit-and-run” recombination and cause cancers spontaneously (FIG. 11A). According to previous reports and experience, lung lesions could be found in mice as young as one-week old. In this group of mice, 100% of the mice will develop lung cancer between 15 to 40 weeks of age (FIG. 11B), and about 30% may also develop thymic lymphoma and papilloma (Nature; 410:6832; 1111-6, 2001). […]
# In this study, 10-week old, female, Kras G12D mice were chosen; which lung cancer had not been well developed in at this age. […] After consecutive treatments for 120 days, treatment for mice that reached 28 weeks old was stopped in both groups and the mice were monitored and weighed continuously. […]
# [3] = oral administration, short-term and long-term feeding; cited from earlier work
# [4] = tested on: LN229 tumor xenograft mice; experiment: Cytokine profiles in serum of treated LN229 xenograft nude mice; assay type: in vivo, mouse; conditions: sera from LN229 tumor xenograft mice
# LN229 tumors [5] = experiment: Immune cells infiltration in LN229 tumors from xenograft mice; assay type: in vivo, mouse
Structure (SMILES),"survival rate at 2 years (malignant gliomas; radiotherapy and chemotherapy, radiotherapy alone 10.4%) [%]","dose-limiting toxicity (malignant gliomas; systemic exposure, specifically thrombocytopenia and neutropenia)",M4N levels accumulated in blood and tumors [1],effect on metabolic pathways of the tumor (LN229 tumors [2]),weight loss during treatment (Kras G12D mice),M4N concentration in mouse organs [3],level of IL-21 in sera (in words) [4],tumor infiltrating immune cells in the tumor microenvironment (LN229 tumors [5])
"Cn1nnc2c(C(N)=O)ncn2c1=O [TMZ, 3,4-dihydro-3-methyl-4-oxoimidazo[5,1-d]-1,2,3,5-tetrazine-8-carboxamide]",26.5,hematological toxicity,–,–,–,–,–,–
"COc1ccc(C[C@@H](C)[C@@H](C)Cc2ccc(OC)c(OC)c2)cc1OC [M4N, Tetra-O-methyl nordihydroguaiaretic acid]",–,–,above 1 mM,suppressed most of the metabolic pathways,no significant weight loss,≤ 906 μg/g of tissue,significantly increased,Tumor infiltrating macrophages and B cells

# From patent publication US12171729B2, “Formulations of terameprocol and temozolomide and their use in stimulation of humoral immunity in tumors” (The Johns Hopkins University, priority 2019, dated 2024)
